According to ChEMBL document CHEMBL5143555, “Potentiating the intracellular killing of Staphylococcus aureus by dihydroquinazoline analogues as NorA efflux pump inhibitor” (Bioorg Med Chem, 2022):
Values after ≈ are worked out from the molar mass of the structure shown. Active and inactive are the calls of the source. The calls are words filed in the database; no cut-off is given here.

What was measured:
Staphylococcus aureus [1] = experiment: Antibacterial activity against Staphylococcus aureus K1758 measured after 24 hrs by Muller Hinton broth based MTT assay; format: functional
Staphylococcus aureus [2] = experiment: Antibacterial activity against Staphylococcus aureus 1199 measured after 24 hrs by Muller Hinton broth based MTT assay; format: functional
[3] = biological target: T1, Quinolone resistance protein NorA (Staphylococcus aureus) (UniProt P0A0J7); experiment: Inhibition of NorA in Staphylococcus aureus 1199B infected human THP-1 cells assessed as potentiation of norfloxacin-induced bactericidal activity by measuring reduction in bacterial count at 1.7 to 3.4 ug/ml measured after 24 hrs relative to control; format: cell-based; settings: dose 1.7-3.4 µg/ml
T1 sequence (whole entry): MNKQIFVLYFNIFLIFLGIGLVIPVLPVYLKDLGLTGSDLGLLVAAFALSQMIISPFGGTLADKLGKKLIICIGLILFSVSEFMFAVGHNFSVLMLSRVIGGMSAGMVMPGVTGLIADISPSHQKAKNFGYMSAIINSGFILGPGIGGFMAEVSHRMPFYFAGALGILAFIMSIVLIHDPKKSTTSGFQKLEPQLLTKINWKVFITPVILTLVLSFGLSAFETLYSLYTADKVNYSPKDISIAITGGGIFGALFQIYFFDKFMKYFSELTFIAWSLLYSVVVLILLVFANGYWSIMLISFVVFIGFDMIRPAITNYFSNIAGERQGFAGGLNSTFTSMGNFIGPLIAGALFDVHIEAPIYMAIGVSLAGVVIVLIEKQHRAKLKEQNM

Staphylococcus aureus [4] = experiment: Antibacterial activity against Staphylococcus aureus 1199B measured after 24 hrs by Muller Hinton broth based MTT assay; format: functional
[5] = biological target: T1, Quinolone resistance protein NorA (Staphylococcus aureus); experiment: Inhibition of NorA in Staphylococcus aureus 1199B assessed as accumulation of norfloxacin at 2.5 ug/ml by measuring fluorescence intensity measured at 5 mins interval for 40 mins by fluorescence spectrophotometry; settings: dose 2.5 µg/ml
[6] = biological target: T1, Quinolone resistance protein NorA (Staphylococcus aureus); experiment: Inhibition of NorA in Staphylococcus aureus 1199B assessed as potentiation of ethidium bromide-induced antibacterial activity by measuring ethidium bromide MIC at sub MIC
[7] = biological target: T1, Quinolone resistance protein NorA (Staphylococcus aureus); experiment: Inhibition of NorA in Staphylococcus aureus 1199B assessed as accumulation of ethidium bromide at 2.5 ug/ml by measuring fluorescence intensity measured at 5 mins interval for 40 mins by fluorescence spectrophotometry; settings: dose 2.5 µg/ml
[8] = biological target: T1, Quinolone resistance protein NorA (Staphylococcus aureus); experiment: Inhibition of NorA in Staphylococcus aureus 1199B assessed as potentiation of ethidium bromide-induced antibacterial activity by measuring fractional inhibitory concentration
[9] = biological target: T1, Quinolone resistance protein NorA (Staphylococcus aureus); experiment: Inhibition of NorA in Staphylococcus aureus 1199B assessed as potentiation of ethidium bromide-induced antibacterial activity by measuring ethidium bromide MIC at sub MIC relative to ethidium bromide MIC alone
[10] = biological target: T1, Quinolone resistance protein NorA (Staphylococcus aureus); experiment: Inhibition of NorA in Staphylococcus aureus 1199B assessed as potentiation of norfloxacin-induced antibacterial activity by measuring Norfloxacin MIC at sub MIC
[11] = biological target: T1, Quinolone resistance protein NorA (Staphylococcus aureus); experiment: Inhibition of NorA in Staphylococcus aureus 1199B assessed as potentiation of norfloxacin-induced antibacterial activity by measuring Norfloxacin MIC at sub MIC relative to norfloxacin MIC alone
[12] = biological target: T1, Quinolone resistance protein NorA (Staphylococcus aureus); experiment: Inhibition of NorA in Staphylococcus aureus 1199B assessed as potentiation of norfloxacin-induced antibacterial activity by measuring fractional inhibitory concentration
[13] = biological target: T1, Quinolone resistance protein NorA (Staphylococcus aureus); experiment: Inhibition of NorA in Staphylococcus aureus 1199B assessed as accumulation of ethidium bromide at 50 ug/ml by measuring fluorescence intensity measured at 5 mins interval for 40 mins by fluorescence spectrophotometry; settings: dose 50.0 µg/ml
[14] = biological target: T1, Quinolone resistance protein NorA (Staphylococcus aureus); experiment: Inhibition of NorA in Staphylococcus aureus 1199B assessed as accumulation of norfloxacin at 50 ug/ml by measuring fluorescence intensity measured at 5 mins interval for 40 mins by fluorescence spectrophotometry; settings: dose 50.0 µg/ml
[15] = biological target: T1, Quinolone resistance protein NorA (Staphylococcus aureus); experiment: Inhibition of NorA in Staphylococcus aureus 1199B assessed as accumulation of ethidium bromide at 3.9 ug/ml by measuring fluorescence intensity measured at 5 mins interval for 40 mins by fluorescence spectrophotometry; settings: dose 3.9 µg/ml
[16] = biological target: T1, Quinolone resistance protein NorA (Staphylococcus aureus); experiment: Inhibition of NorA in Staphylococcus aureus 1199B assessed as accumulation of norfloxacin at 3.9 ug/ml measured at 5 mins interval for 40 mins by fluorescence spectrophotometry; settings: dose 3.9 µg/ml
[17] = biological target: T1, Quinolone resistance protein NorA (Staphylococcus aureus); experiment: Inhibition of NorA in Staphylococcus aureus 1199B assessed as potentiation of 3.1 ug/mL norfloxacin-induced bactericidal activity by measuring log reduction in bacterial count at 7.8 ug/mL measured after 24 hrs by time-kill kinetics assay; settings: dose 7.8 µg/ml
[18] = biological target: T1, Quinolone resistance protein NorA (Staphylococcus aureus); experiment: Inhibition of NorA in Staphylococcus aureus 1199B assessed as potentiation of ethidium bromide-induced bactericidal activity at 7.8 ug/ml measured after 24 hrs by time-kill kinetics assay; settings: dose 7.8 µg/ml
[19] = Cytotoxicity against kidney epithelial cells (unknown origin) assessed as cell viability at 50 ug/mL measured after 24 hrs by alamar blue assay relative to control; format: toxicity, cell-based, Fetal kidney cell; settings: at 50 µg/mL, read-out: Activity

Structure (SMILES)	MIC (Staphylococcus aureus [1])	MIC (Staphylococcus aureus [2])	fold change (FC) [3]	MIC (Staphylococcus aureus [4])	Flu intensity [5]	MIC [6]	Flu intensity [7]	fractional inhibitory concentration index (FICI) [8]	fold change (FC) [9]	MIC [10]	fold change (FC) [11]	fractional inhibitory concentration index (FICI) [12]	Flu intensity [13]	Flu intensity [14]	Flu intensity [15]	inhibition [16]	Activity [17]	inhibition [18]	viability at 24 h, 50 ug/mL [19]
CN[C@H](CC(C)C)C(=O)N[C@H]1C(=O)N[C@@H](CC(N)=O)C(=O)N[C@H]2C(=O)N[C@H]3C(=O)N[C@H](C(=O)N[C@H](C(=O)O)c4cc(O)cc(O)c4-c4cc3ccc4O)[C@H](O)c3ccc(c(Cl)c3)Oc3cc2cc(c3O[C@@H]2O[C@H](CO)[C@@H](O)[C@H](O)[C@H]2O[C@H]2C[C@](C)(N)[C@H](O)[C@H](C)O2)Oc2ccc(cc2Cl)[C@H]1O [VANCOMYCIN]	0.1 µg/mL (≈ 0.069 µM)	0.42 µg/mL (≈ 0.29 µM)	2	1.7 µg/mL (≈ 1.17 µM)															
N#CC(C#N)=NNc1cccc(Cl)c1 [CARBONYL CYANIDE M-CHLOROPHENYLHYDRAZONE]				20 µg/mL (≈ 97.7 µM)	695	3.1 µg/mL	149	0.562	16	6.2 µg/mL	8	0.625							
COc1ccc(CCN(C)CCCC(C#N)(c2ccc(OC)c(OC)c2)C(C)C)cc1OC (centres undefined) [VERAPAMIL]				400 µg/mL (≈ 880 µM)		6.2 µg/mL			8	12.5 µg/mL	4		189	1590					
COc1ccc(C2N=C(c3ccccc3)c3ccccc3N2)cc1OC (centres undefined)	250 µg/mL (≈ 726 µM)	125 µg/mL (≈ 363 µM)		500 µg/mL (≈ 1450 µM)		6.2 µg/mL		0.141	8	3.1 µg/mL	16	0.078			86	Active	> 3 log10CFU/ml	Active	83.7%
